# Results taken from patent publication US10849867B2, “Methods and compositions for treating conditions associated with an abnormal inflammatory response” (First Wave Bio, Inc., priority 2015, dated 2020).
# Assays:
# Jurkat T cells = assay: Mitochondrial transmembrane potential (ΔΨm) in Jurkat T cells, TMRM flow cytometry with oligomycin (Example 1); format: cell-based; conditions: relative to negative controls
# From the text: Objective. […] Model. The Jurkat T cell model is commonly used to study the potential effects of compounds on T cells in vitro. This cell line allows investigation of stimuli and mechanisms that regulate T cell mitochondrial function and survival. As T cells, Jurkats have a lymphocyte appearance and replicate in culture in suspension. They contain respiring mitochondria and as such response to mitochondrial uncouplers such as niclosamide may be assessed. Uncoupling is identified and quantified by a detecting a drop in the electrochemical gradient across the mitochondrial inner membrane (ΔΨm) that is not associated with a corresponding increase in oxidative phosphorylation. […] Cell culture. Jurkat T cells were purchased from the American Type Culture Collection (Manassas, Va.) and sub-cultured according to instructions from the supplier. Prior to experiments, cells were cultured in RPMI 1640 containing 10% FBS-HI, 50 units penicillin/mL and 50 μg streptomycin/mL, and maintained in log phase prior to experimental setup. […] TMRM has been described as one of the best fluorescent dyes for dynamic and in situ quantitative measurements because it is rapidly and reversibly taken up by live cells and mitochondria. […] Ratios of the fluorescence intensity of each treated sample to the control sample mean were then calculated as a measure of relative decrease in ΔΨm. […]
# human LPMCs T cells = assay: Pro-inflammatory cytokine producing LPMC T cells, intracellular staining flow cytometry (Example 10); format: cell-based; conditions: 5 μM, 24 h, relative to vehicle only negative control
# From the text: Model: Lamina propria mononuclear cells (LPMC) in the human intestine are comprised in part by T cells which mediate pathological processes including inflammatory bowel disease. LPMCs can be isolated from human intestine tissue biopsies. After isolation […] cells remain viable ex vivo under appropriate culture conditions for periods of time that allow ex vivo experiments. These cells can be used to investigate if test agents affect their production of pro-inflammatory cytokines including interferon-gamma (IFN), tumor necrosis factor-alpha (TNF) and interleukin 17A (IL-17A), to determine if a test agent affects the pro-inflammatory cytokines that mediate inflammatory bowel disease, including UC. Cell Isolation and Culture: Cells were obtained from colon biopsy specimens of a human from areas with moderate to severe UC. For the isolation of lamina propria mononuclear […] specimens were initially washed in Hank's balanced salt solution (HBSS) then cut into 0.5-cm pieces, and incubated with stirring in pre-warmed HBSS containing 1 mM DTT at 37° C. for 15 minutes. The supernatant was removed and the sample washed with stirring with HBSS for 5 minutes twice. Samples were incubated with stirring in pre-warmed HBSS containing 5 mM EDTA for 30 minutes. The supernatant was removed and the sample washed with stirring with HBSS for 5 minutes three times. The tissue was then digested further in RPMI 1640 containing 2 mg/ml Liberase and 0.01 ug/ml DNase I for 1 hours at 37° C. with stirring. After digestion, the mononuclear cells in suspension were collected and centrifuged at 400 g for 10 minutes. After two washings in HBS, the pellet was resuspended in a 40% Percoll solution and layered on the top of a Percoll solution (100%, 60%, 40%, and 30% Percoll in HBSS). The tube was centrifuged at 400 g for 25 minutes, and LPMCs at the 60%-40% Percoll layer interface were collected. The isolated cells were counted and checked for viability using 0.1% trypan blue (viability ranged from 86% to 94%). […]
structure (smiles),measurement,setting,value
"O=C(Nc1ccc([N+](=O)[O-])cc1Cl)c1cc(Cl)ccc1O [Niclosamide, 5-chloro-N-(2-chloro-4-nitrophenyl)-2-hydroxybenzamide]",change in ΔΨm in Jurkat cells,"Jurkat T cells; 1-500 μM, 60 minutes, oligomycin present, TMRM",dose-related decrease
same,concentrations of niclosamide that significantly decreased ΔΨm (p<0.05),Jurkat T cells; Jurkat cells,≥ 5 µM
same,human LPMCs T cells that produce IFN,human LPMCs T cells,decrease
same,human LPMCs T cells that produce IL-17A,human LPMCs T cells,decrease
same,human LPMCs T cells that produce TNF,human LPMCs T cells,decrease
